Experimental data from US11401271B2, “Fused heterocyclic compound, pyrazole-ring-containing fused heterocyclic compound, agricultural composition containing thereof, and method of using the composition” (SOUTH CHINA AGRICULTURAL UNIVERSITY, priority 2017, dated 2022).

Test system: Aphis craccivora
Test: whole plant or invertebrate
Assay type: in vivo
Conditions: 500 ppm; wingless adults, immersion 5 seconds, counted after 24 hours
Procedure, shortened: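 Wingless adults feeding on bean sprouts were dipped with the sprouts for 5 s in 500 ppm compound in aqueous 0.05% Tween-80, air-dried, then held at 23° C. Dead aphids counted after 24 h, triplicate, with 0.05% Tween-80 as control. Mortality (%) = (control live − treated live)/control live × 100.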

Row | Compound | Aphis craccivora Mortality (%)
1 | COC(=O)CC1(C(=O)C(F)(F)F)Nc2c([S+]([O-])C(F)(F)F)c(C#N)nn2-c2c(Cl)cc(C(F)(F)F)cc21 (stereo not drawn) [d-54] | 100
2 | N#CCC1(Cl)Nc2c([S+]([O-])C(F)(F)F)c(C#N)nn2-c2c(Cl)cc(C(F)(F)F)cc21 (stereo not drawn) [d-60] | 90
3 | N#Cc1nn2c(c1[S+]([O-])C(F)(F)F)NC(Br)(CC(=O)C(F)(F)F)c1cc(C(F)(F)F)cc(Cl)c1-2 (stereo not drawn) [d-63] | 100
4 | N#Cc1nn2c(c1[S+]([O-])C(F)(F)F)NC(C#N)(CC(F)(F)F)c1cc(C(F)(F)F)cc(Cl)c1-2 (stereo not drawn) [d-65] | 100
5 | COC(=O)CC1(C#N)Nc2c([S+]([O-])C(F)(F)F)c(C#N)nn2-c2c(Cl)cc(C(F)(F)F)cc21 (stereo not drawn) [d-67] | 100
6 | N#Cc1nn2c(c1[S+]([O-])C(F)(F)F)NC(CC(F)(F)F)(C(F)(F)F)c1cc(C(F)(F)F)cc(Cl)c1-2 (stereo not drawn) [d-69] | 100
7 | N#CCC1(C(F)(F)F)Nc2c([S+]([O-])C(F)(F)F)c(C#N)nn2-c2c(Cl)cc(C(F)(F)F)cc21 (stereo not drawn) [d-70] | 99
8 | CCCCOC(=O)CC1(C(=O)OCCCC)Nc2c([S+]([O-])C(F)(F)F)c(C#N)nn2-c2c(Cl)cc(C(F)(F)F)cc21 (stereo not drawn) [d-72] | 99
9 | N#Cc1nn2c(c1[S+]([O-])C(F)(F)F)NC(C(=O)C(F)(F)F)c1cc(C(F)(F)F)cc(Cl)c1-2 (stereo not drawn) [d-81] | 100
10 | N#Cc1nn2c(c1[S+]([O-])C(F)(F)F)NC(C#N)c1cc(C(F)(F)F)cc(Cl)c1-2 (stereo not drawn) [d-82] | 100
11 | N#Cc1nn2c(c1[S+]([O-])C(F)(F)F)NC(CC(F)(F)F)c1cc(C(F)(F)F)cc(Cl)c1-2 (stereo not drawn) [d-85] | 100
12 | N#Cc1nn2c(c1[S+]([O-])C(F)(F)F)NC(Cl)c1cc(C(F)(F)F)cc(Cl)c1-2 (stereo not drawn) [d-90] | 90

Test system: Plutella xylostella
Test: whole plant or invertebrate
Assay type: in vivo
Conditions: 500 ppm; 2nd-instar larvae, leaf immersion feeding
Procedure, shortened: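 Cabbage leaf discs dipped 5 s in compound at 500 ppm (0.05% Tween-80 aqueous), air-dried, fed to about 35 2nd-instar larvae at 28° C., triplicate. Dead larvae counted after 24 h; mortality (%) corrected against Tween-80 control.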

Row | Compound | Plutella xylostella Mortality (%)
13 | COC(=O)CC1(C(=O)C(F)(F)F)Nc2c([S+]([O-])C(F)(F)F)c(C#N)nn2-c2c(Cl)cc(C(F)(F)F)cc21 (stereo not drawn) [d-54] | 100
14 | N#CCC1(Cl)Nc2c([S+]([O-])C(F)(F)F)c(C#N)nn2-c2c(Cl)cc(C(F)(F)F)cc21 (stereo not drawn) [d-60] | 96
15 | N#Cc1nn2c(c1[S+]([O-])C(F)(F)F)NC(Br)(CC(=O)C(F)(F)F)c1cc(C(F)(F)F)cc(Cl)c1-2 (stereo not drawn) [d-63] | 100
16 | N#Cc1nn2c(c1[S+]([O-])C(F)(F)F)NC(C#N)(CC(F)(F)F)c1cc(C(F)(F)F)cc(Cl)c1-2 (stereo not drawn) [d-65] | 100
17 | COC(=O)CC1(C#N)Nc2c([S+]([O-])C(F)(F)F)c(C#N)nn2-c2c(Cl)cc(C(F)(F)F)cc21 (stereo not drawn) [d-67] | 100
18 | N#Cc1nn2c(c1[S+]([O-])C(F)(F)F)NC(CC(F)(F)F)(C(F)(F)F)c1cc(C(F)(F)F)cc(Cl)c1-2 (stereo not drawn) [d-69] | 90
19 | N#CCC1(C(F)(F)F)Nc2c([S+]([O-])C(F)(F)F)c(C#N)nn2-c2c(Cl)cc(C(F)(F)F)cc21 (stereo not drawn) [d-70] | 91
20 | CCCCOC(=O)CC1(C(=O)OCCCC)Nc2c([S+]([O-])C(F)(F)F)c(C#N)nn2-c2c(Cl)cc(C(F)(F)F)cc21 (stereo not drawn) [d-72] | 90
21 | N#Cc1nn2c(c1[S+]([O-])C(F)(F)F)NC(C(=O)C(F)(F)F)c1cc(C(F)(F)F)cc(Cl)c1-2 (stereo not drawn) [d-81] | 99
22 | N#Cc1nn2c(c1[S+]([O-])C(F)(F)F)NC(C#N)c1cc(C(F)(F)F)cc(Cl)c1-2 (stereo not drawn) [d-82] | 95
23 | N#Cc1nn2c(c1[S+]([O-])C(F)(F)F)NC(CC(F)(F)F)c1cc(C(F)(F)F)cc(Cl)c1-2 (stereo not drawn) [d-85] | 100
24 | N#Cc1nn2c(c1[S+]([O-])C(F)(F)F)NC(Cl)c1cc(C(F)(F)F)cc(Cl)c1-2 (stereo not drawn) [d-90] | 82

Test system: Solenopsis invicta
Test: whole plant or invertebrate
Assay type: in vivo
Conditions: 100 ppm; 24 h; water test tube poison-feeding
Procedure, shortened: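 Fire ants fed compound by water test-tube poison-feeding at 100 ppm in aqueous 0.05% Tween-80/5% honey (from 10 g/L DMSO stock), kept at 25 °C. Live and dead ants counted at 24 and 72 h; mortality (%) calculated relative to live ants in the untreated control.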

Row | Compound | Solenopsis invicta Mortality (%) 24 h [%]
25 | COC(=O)CC1(C(=O)C(F)(F)F)Nc2c([S+]([O-])C(F)(F)F)c(C#N)nn2-c2c(Cl)cc(C(F)(F)F)cc21 (stereo not drawn) [d-54] | 21
26 | N#CCC1(Cl)Nc2c([S+]([O-])C(F)(F)F)c(C#N)nn2-c2c(Cl)cc(C(F)(F)F)cc21 (stereo not drawn) [d-60] | 24
27 | N#Cc1nn2c(c1[S+]([O-])C(F)(F)F)NC(Br)(CC(=O)C(F)(F)F)c1cc(C(F)(F)F)cc(Cl)c1-2 (stereo not drawn) [d-63] | 20
28 | N#Cc1nn2c(c1[S+]([O-])C(F)(F)F)NC(C#N)(CC(F)(F)F)c1cc(C(F)(F)F)cc(Cl)c1-2 (stereo not drawn) [d-65] | 24
29 | COC(=O)CC1(C#N)Nc2c([S+]([O-])C(F)(F)F)c(C#N)nn2-c2c(Cl)cc(C(F)(F)F)cc21 (stereo not drawn) [d-67] | 41
30 | N#Cc1nn2c(c1[S+]([O-])C(F)(F)F)NC(CC(F)(F)F)(C(F)(F)F)c1cc(C(F)(F)F)cc(Cl)c1-2 (stereo not drawn) [d-69] | 44
31 | N#CCC1(C(F)(F)F)Nc2c([S+]([O-])C(F)(F)F)c(C#N)nn2-c2c(Cl)cc(C(F)(F)F)cc21 (stereo not drawn) [d-70] | 20
32 | CCCCOC(=O)CC1(C(=O)OCCCC)Nc2c([S+]([O-])C(F)(F)F)c(C#N)nn2-c2c(Cl)cc(C(F)(F)F)cc21 (stereo not drawn) [d-72] | 26
33 | N#Cc1nn2c(c1[S+]([O-])C(F)(F)F)NC(C(=O)C(F)(F)F)c1cc(C(F)(F)F)cc(Cl)c1-2 (stereo not drawn) [d-81] | 35
34 | N#Cc1nn2c(c1[S+]([O-])C(F)(F)F)NC(C#N)c1cc(C(F)(F)F)cc(Cl)c1-2 (stereo not drawn) [d-82] | 25
35 | N#Cc1nn2c(c1[S+]([O-])C(F)(F)F)NC(CC(F)(F)F)c1cc(C(F)(F)F)cc(Cl)c1-2 (stereo not drawn) [d-85] | 30
36 | N#Cc1nn2c(c1[S+]([O-])C(F)(F)F)NC(Cl)c1cc(C(F)(F)F)cc(Cl)c1-2 (stereo not drawn) [d-90] | 16

Same assay, conditions: 100 ppm; 72 h; water test tube poison-feeding

Row | Compound | Solenopsis invicta Mortality (%) 72 h [%]
37 | COC(=O)CC1(C(=O)C(F)(F)F)Nc2c([S+]([O-])C(F)(F)F)c(C#N)nn2-c2c(Cl)cc(C(F)(F)F)cc21 (stereo not drawn) [d-54] | 99
38 | N#CCC1(Cl)Nc2c([S+]([O-])C(F)(F)F)c(C#N)nn2-c2c(Cl)cc(C(F)(F)F)cc21 (stereo not drawn) [d-60] | 90
39 | N#Cc1nn2c(c1[S+]([O-])C(F)(F)F)NC(Br)(CC(=O)C(F)(F)F)c1cc(C(F)(F)F)cc(Cl)c1-2 (stereo not drawn) [d-63] | 90
40 | N#Cc1nn2c(c1[S+]([O-])C(F)(F)F)NC(C#N)(CC(F)(F)F)c1cc(C(F)(F)F)cc(Cl)c1-2 (stereo not drawn) [d-65] | 90
41 | COC(=O)CC1(C#N)Nc2c([S+]([O-])C(F)(F)F)c(C#N)nn2-c2c(Cl)cc(C(F)(F)F)cc21 (stereo not drawn) [d-67] | 99
42 | N#Cc1nn2c(c1[S+]([O-])C(F)(F)F)NC(CC(F)(F)F)(C(F)(F)F)c1cc(C(F)(F)F)cc(Cl)c1-2 (stereo not drawn) [d-69] | 100
43 | N#CCC1(C(F)(F)F)Nc2c([S+]([O-])C(F)(F)F)c(C#N)nn2-c2c(Cl)cc(C(F)(F)F)cc21 (stereo not drawn) [d-70] | 98
44 | CCCCOC(=O)CC1(C(=O)OCCCC)Nc2c([S+]([O-])C(F)(F)F)c(C#N)nn2-c2c(Cl)cc(C(F)(F)F)cc21 (stereo not drawn) [d-72] | 76
45 | N#Cc1nn2c(c1[S+]([O-])C(F)(F)F)NC(C(=O)C(F)(F)F)c1cc(C(F)(F)F)cc(Cl)c1-2 (stereo not drawn) [d-81] | 100
46 | N#Cc1nn2c(c1[S+]([O-])C(F)(F)F)NC(C#N)c1cc(C(F)(F)F)cc(Cl)c1-2 (stereo not drawn) [d-82] | 90
47 | N#Cc1nn2c(c1[S+]([O-])C(F)(F)F)NC(CC(F)(F)F)c1cc(C(F)(F)F)cc(Cl)c1-2 (stereo not drawn) [d-85] | 100
48 | N#Cc1nn2c(c1[S+]([O-])C(F)(F)F)NC(Cl)c1cc(C(F)(F)F)cc(Cl)c1-2 (stereo not drawn) [d-90] | 85

Test system: Spodoptera exigua
Test: whole plant or invertebrate
Assay type: in vivo
Conditions: 500 ppm; 2nd-instar larvae, leaf immersion feeding
Procedure, shortened: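 Cabbage leaf discs dipped 5 s in 500 ppm compound (0.05% Tween-80 aqueous), air-dried, fed to about 35 2nd-instar larvae at 28° C, three replicates. Deaths counted at 24 h; mortality corrected against Tween-80 control.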

Row | Compound | Spodoptera exigua Mortality (%)
49 | COC(=O)CC1(C(=O)C(F)(F)F)Nc2c([S+]([O-])C(F)(F)F)c(C#N)nn2-c2c(Cl)cc(C(F)(F)F)cc21 (stereo not drawn) [d-54] | 99
50 | N#CCC1(Cl)Nc2c([S+]([O-])C(F)(F)F)c(C#N)nn2-c2c(Cl)cc(C(F)(F)F)cc21 (stereo not drawn) [d-60] | 90
51 | N#Cc1nn2c(c1[S+]([O-])C(F)(F)F)NC(Br)(CC(=O)C(F)(F)F)c1cc(C(F)(F)F)cc(Cl)c1-2 (stereo not drawn) [d-63] | 95
52 | N#Cc1nn2c(c1[S+]([O-])C(F)(F)F)NC(C#N)(CC(F)(F)F)c1cc(C(F)(F)F)cc(Cl)c1-2 (stereo not drawn) [d-65] | 100
53 | COC(=O)CC1(C#N)Nc2c([S+]([O-])C(F)(F)F)c(C#N)nn2-c2c(Cl)cc(C(F)(F)F)cc21 (stereo not drawn) [d-67] | 90
54 | N#Cc1nn2c(c1[S+]([O-])C(F)(F)F)NC(CC(F)(F)F)(C(F)(F)F)c1cc(C(F)(F)F)cc(Cl)c1-2 (stereo not drawn) [d-69] | 86
55 | N#CCC1(C(F)(F)F)Nc2c([S+]([O-])C(F)(F)F)c(C#N)nn2-c2c(Cl)cc(C(F)(F)F)cc21 (stereo not drawn) [d-70] | 90
56 | CCCCOC(=O)CC1(C(=O)OCCCC)Nc2c([S+]([O-])C(F)(F)F)c(C#N)nn2-c2c(Cl)cc(C(F)(F)F)cc21 (stereo not drawn) [d-72] | 85
57 | N#Cc1nn2c(c1[S+]([O-])C(F)(F)F)NC(C(=O)C(F)(F)F)c1cc(C(F)(F)F)cc(Cl)c1-2 (stereo not drawn) [d-81] | 90
58 | N#Cc1nn2c(c1[S+]([O-])C(F)(F)F)NC(C#N)c1cc(C(F)(F)F)cc(Cl)c1-2 (stereo not drawn) [d-82] | 89
59 | N#Cc1nn2c(c1[S+]([O-])C(F)(F)F)NC(CC(F)(F)F)c1cc(C(F)(F)F)cc(Cl)c1-2 (stereo not drawn) [d-85] | 100
60 | N#Cc1nn2c(c1[S+]([O-])C(F)(F)F)NC(Cl)c1cc(C(F)(F)F)cc(Cl)c1-2 (stereo not drawn) [d-90] | 80
